Among the data in US20240262811A1, “BENZIMIDAZOYL GLP-1 RECEPTOR AGONISTS, PHARMACEUTICAL COMPOSITIONS COMPRISING THE SAME, AND METHODS FOR THEIR USE” (Carmot Therapeutics, Inc., priority 2021, published 2024) are EC50 values, retold here.

For orientation: EC50 means the concentration at which the effect is half-maximal. Low readings indicate higher potency in that assay, high ones lower potency in that assay.

This test concerns the target T1, human GLP-1 receptor (Homo sapiens, UniProt P43220).
T1 construct: expressed in transfected cells
Nature of the test: GLP-1R cAMP Assay (HitHunter cAMP accumulation in CHO cells stably overexpressing the human GLP-1 receptor). Format: cell-based. The conditions noted are these: CHO cells overexpressing human GLP-1 receptor, 30 min treatment, 20-point dose response in triplicate. The protocol:
cAMP accumulation was measured in Chinese hamster ovary (CHO) cells stably overexpressing the human GLP-1 receptor using the HitHunter cAMP Assay for Small Molecules Kit (Eurofins). Briefly, cells were grown in Ham's F12 Nutrient Mix with 10% FBS, and lifted with Cell Dissociation Buffer, Enzyme free, PBS based (ThermoFisher). Cells were pelleted, and resuspended in Hank's buffered saline solution with 10 mM HEPES, and 625 μM 3-isobutyl-1-methylxanthine. The anti-cAMP antibody reagent was then added to cells at a 1:2 ratio and 5 μL of mixture was seeded in 384-well small volume white assay plates, at 10,000 cells/well. Cells were then treated with 50 nL compound using an ECHO 550 acoustic dispenser (Labcyte) in a 20-point dose response format in triplicate for 30 min. Cells were then lysed, and detection reagents added according to the manufacturer's protocol. After overnight incubation, luminescence was measured using a Perkin Elmer Envision plate reader. Dose response curves were analyzed using GraphPad Prism 9.0.
Molecular weights are calculated by standard techniques, and mass spectrometry results are reported according to the Examples above.

Where only a bound is given, the exact number is not on record here.

T1 sequence (P43220 24-463): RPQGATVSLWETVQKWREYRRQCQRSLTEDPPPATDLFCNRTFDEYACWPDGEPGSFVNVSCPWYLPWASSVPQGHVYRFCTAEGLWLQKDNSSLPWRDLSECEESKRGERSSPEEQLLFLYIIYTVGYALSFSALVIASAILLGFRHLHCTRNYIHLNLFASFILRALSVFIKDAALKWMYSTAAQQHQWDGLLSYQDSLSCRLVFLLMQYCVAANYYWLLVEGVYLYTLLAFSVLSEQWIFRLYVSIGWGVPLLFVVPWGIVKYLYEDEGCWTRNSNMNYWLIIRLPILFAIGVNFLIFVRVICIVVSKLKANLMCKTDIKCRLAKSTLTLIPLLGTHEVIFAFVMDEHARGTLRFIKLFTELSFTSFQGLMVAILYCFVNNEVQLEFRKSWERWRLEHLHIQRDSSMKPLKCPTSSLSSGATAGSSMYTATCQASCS

For `O=C(O)c1ccc2nc(CN3CC[C@H](Oc4ccnc(COc5ccc(Cl)cc5F)c4)C3)n(C[C@@H]3CCO3)c2c1` [Compound 289, 2-{[(3S)-3-({2-[(4-chloro-2-fluorophenoxy)methyl]pyridin-4-yl}oxy)pyrrolidin-1-yl]methyl}-1-{[(2S)-oxetan-2-yl]methyl}-1H-1,3-benzodiazole-6-carboxylic acid], the EC50 is less than 0.05 µM.
